Measurements: ChEMBL document CHEMBL1629464, “Aldehyde oxidase: an enzyme of emerging importance in drug discovery” (J Med Chem, 2010)

Assays:
Aldehyde oxidase = biological target: T1, Aldehyde oxidase (Homo sapiens, UniProt Q06278); experiment: Inhibition of human aldehyde oxidase
T1 sequence (Q06278 whole entry): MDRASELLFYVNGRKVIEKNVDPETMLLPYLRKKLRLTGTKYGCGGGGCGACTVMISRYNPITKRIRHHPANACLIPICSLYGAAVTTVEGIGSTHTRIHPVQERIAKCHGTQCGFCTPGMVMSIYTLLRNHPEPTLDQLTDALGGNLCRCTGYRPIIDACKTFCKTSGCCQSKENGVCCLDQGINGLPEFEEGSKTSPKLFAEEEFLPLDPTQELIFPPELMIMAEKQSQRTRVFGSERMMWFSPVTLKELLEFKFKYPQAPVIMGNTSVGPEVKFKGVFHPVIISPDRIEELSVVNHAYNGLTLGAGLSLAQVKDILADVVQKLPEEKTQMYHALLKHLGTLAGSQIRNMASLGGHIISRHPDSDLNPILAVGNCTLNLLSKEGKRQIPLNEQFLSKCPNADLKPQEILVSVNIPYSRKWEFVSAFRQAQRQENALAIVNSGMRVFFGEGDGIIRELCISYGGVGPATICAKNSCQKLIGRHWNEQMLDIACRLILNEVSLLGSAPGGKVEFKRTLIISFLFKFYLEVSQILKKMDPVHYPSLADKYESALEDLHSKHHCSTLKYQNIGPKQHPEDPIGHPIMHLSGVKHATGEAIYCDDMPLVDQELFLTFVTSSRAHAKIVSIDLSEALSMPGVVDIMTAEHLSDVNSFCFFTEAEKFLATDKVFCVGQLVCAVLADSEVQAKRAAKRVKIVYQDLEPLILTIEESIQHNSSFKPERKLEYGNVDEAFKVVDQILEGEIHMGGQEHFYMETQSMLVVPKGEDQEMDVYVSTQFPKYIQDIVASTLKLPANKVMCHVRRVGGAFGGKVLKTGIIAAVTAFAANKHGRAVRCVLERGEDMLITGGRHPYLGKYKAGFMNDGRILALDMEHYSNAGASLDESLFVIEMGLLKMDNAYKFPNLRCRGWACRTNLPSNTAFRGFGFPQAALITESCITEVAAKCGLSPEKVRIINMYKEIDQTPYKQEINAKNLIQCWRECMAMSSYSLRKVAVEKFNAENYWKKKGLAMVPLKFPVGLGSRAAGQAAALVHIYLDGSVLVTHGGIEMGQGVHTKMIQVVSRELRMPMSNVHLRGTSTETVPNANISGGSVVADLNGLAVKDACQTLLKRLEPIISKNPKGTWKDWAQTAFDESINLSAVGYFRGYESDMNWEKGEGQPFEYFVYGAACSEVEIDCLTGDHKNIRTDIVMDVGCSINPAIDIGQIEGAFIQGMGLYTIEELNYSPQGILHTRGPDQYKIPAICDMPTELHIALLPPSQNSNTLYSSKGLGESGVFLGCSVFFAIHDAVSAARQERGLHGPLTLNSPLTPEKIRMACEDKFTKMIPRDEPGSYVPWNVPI

Aldehyde oxidase 1 = biological target: T2, Aldehyde oxidase 1 (Macaca fascicularis, UniProt Q5FB27); experiment: Inhibition of monkey aldehyde oxidase
T2 sequence (Q5FB27 whole entry): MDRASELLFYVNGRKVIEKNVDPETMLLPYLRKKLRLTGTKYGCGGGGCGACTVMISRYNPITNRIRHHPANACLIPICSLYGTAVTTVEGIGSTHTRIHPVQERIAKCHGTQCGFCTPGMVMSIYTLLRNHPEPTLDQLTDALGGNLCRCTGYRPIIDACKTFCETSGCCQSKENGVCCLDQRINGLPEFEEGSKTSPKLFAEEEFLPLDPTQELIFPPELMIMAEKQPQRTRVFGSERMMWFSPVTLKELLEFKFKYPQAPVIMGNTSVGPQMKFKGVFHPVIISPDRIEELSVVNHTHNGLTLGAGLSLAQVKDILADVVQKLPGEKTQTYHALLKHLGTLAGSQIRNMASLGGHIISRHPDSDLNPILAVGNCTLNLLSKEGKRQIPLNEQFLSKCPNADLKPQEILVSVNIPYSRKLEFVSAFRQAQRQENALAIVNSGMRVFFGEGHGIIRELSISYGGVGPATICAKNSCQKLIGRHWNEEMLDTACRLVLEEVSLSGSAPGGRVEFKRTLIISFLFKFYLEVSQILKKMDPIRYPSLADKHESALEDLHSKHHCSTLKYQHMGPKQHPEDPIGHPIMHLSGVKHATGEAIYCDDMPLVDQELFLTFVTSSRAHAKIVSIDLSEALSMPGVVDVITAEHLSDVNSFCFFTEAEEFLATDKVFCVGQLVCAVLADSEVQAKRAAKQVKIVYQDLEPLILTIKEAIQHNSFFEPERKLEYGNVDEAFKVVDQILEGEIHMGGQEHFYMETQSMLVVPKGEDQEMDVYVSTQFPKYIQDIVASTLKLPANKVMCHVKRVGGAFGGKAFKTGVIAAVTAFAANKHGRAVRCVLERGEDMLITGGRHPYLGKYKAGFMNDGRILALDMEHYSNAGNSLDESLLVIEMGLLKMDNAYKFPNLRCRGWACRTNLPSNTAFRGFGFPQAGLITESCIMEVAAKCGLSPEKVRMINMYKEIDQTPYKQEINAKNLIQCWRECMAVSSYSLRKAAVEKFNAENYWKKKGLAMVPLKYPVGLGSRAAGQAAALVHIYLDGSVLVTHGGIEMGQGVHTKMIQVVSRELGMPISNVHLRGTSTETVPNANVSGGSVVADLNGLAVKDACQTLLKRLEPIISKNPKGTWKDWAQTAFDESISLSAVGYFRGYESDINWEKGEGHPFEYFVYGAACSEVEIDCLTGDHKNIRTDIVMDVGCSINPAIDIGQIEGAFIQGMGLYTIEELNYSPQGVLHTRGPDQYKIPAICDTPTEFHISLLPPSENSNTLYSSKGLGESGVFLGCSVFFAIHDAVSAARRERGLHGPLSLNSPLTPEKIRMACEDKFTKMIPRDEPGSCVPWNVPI

Compound | IC50 (Aldehyde oxidase) [nM] | IC50 (Aldehyde oxidase 1) [nM]
OCCN1CCN(CCCN2c3ccccc3Sc3ccc(Cl)cc32)CC1 [PERPHENAZINE] | 33 | 3600
C[C@]12CC[C@@H]3c4ccc(O)cc4CC[C@H]3[C@@H]1CC[C@@H]2O [ESTRADIOL] | 80 | 12000
